Experimental data reported in ChEMBL document CHEMBL3507680, “University of Dundee, Gates Library screen for HepG2 cell viability”.

Assay: Human HepG2 cell viability assay in 384 well format
Format: toxicity, cell-based
Design: dose 125 nL, time 70.5 hour; cytotoxicity at 70.5 h: concentration not given beside the values
Conditions: HepG2 cells, read-out: Inhibition

SMILES	cytotoxicity at 70.5 h
N#Cc1ccc(S(=O)(=O)NCCn2ccnc2)cc1Cl	-0.547%
CN1CCN2C[C@@H](CO)[C@H](c3ccccc3)[C@H]2C1	-5.05%
COCCC(=O)N1CC[C@@H](N2CCN(C)CC2)[C@@H]1Cc1ccccc1	-1.48%
CCc1sc(-c2nnc(CNC(C)Cn3cc(C)cn3)o2)cc1C (configuration not stated)	5.1%
Cc1cccc(-c2noc(CN3CCOCC3C)n2)c1 (configuration not stated)	-5.27%
CC(C)(C)C(=O)N1CCCC1(C(=O)N1CCCC1)c1cnccn1 (configuration not stated)	18.9%
O=C(O)c1ccc(C2CCCN(Cc3ccc(-c4cc[nH]n4)o3)C2)cc1 (configuration not stated)	16.9%
Cn1ccnc1CN(CCO)C(=O)c1cnc2ccccc2c1	0.182%
Cc1cc(CN(C)C(=O)NCc2ccnc(OC3CCCC3)c2)no1	-3.22%
CN(C(=O)Cn1nc(-c2ccc(Cl)cc2)ccc1=O)C1CCS(=O)(=O)C1 (configuration not stated)	-21.1%
COc1cc(Cl)cc(C(=O)N2CCC3(CC2)CNC(=O)C3)c1	-15.2%
CSCCC(=O)N1CCN(CC(O)C(C)(C)C)CC1 (configuration not stated)	24.8%
CCC(C)n1cnc(S(=O)(=O)N(Cc2cccnc2)C(C)C)c1 (configuration not stated)	3.97%
CCCc1cc(=O)[nH]c2nnc(SCC(=O)NCCc3ccccc3)n12	-5.81%
CNC(=O)C1(N2CCC[C@H]2C(=O)NC2CC2)CCCCC1	-3.89%
OCCn1cc(CN2CCN(CCOCC(F)(F)F)CC2)cn1	6.14%
Cc1nn(C)c(C)c1C(=O)N1CCN(c2ccncc2Cl)CC1	-6.89%
Cc1nc(-c2cc(C(=O)N3CCN(C)CC3)c3ccccn23)cn1C	-0.647%
Cn1cc(CNC2CCc3ncnn3C2)c(-c2cccnc2)n1 (configuration not stated)	-5.95%
CCn1cnnc1CNC(=O)Cc1ccc2c(c1)OCCO2	-14.5%
CN(Cc1ccco1)[C@@H]1CN(Cc2ccccn2)C[C@@H]2CCCO[C@@H]21	-9.21%

SMILES	cytotoxicity at 70.5 h
CCOCc1ccccc1CNc1ccc2nncn2n1	-5.87%
COCC[C@]1(O)CCN(Cc2nc(C)c(C)s2)C[C@H]1C	-7.5%
CCCC1CN(CC(C)C)C(=O)c2cccnc2O1 (configuration not stated)	44%
CC(C)c1nn(C)c(N2CCOCC2)c1CN[C@H](C)CO	-1.16%
O=C(O)C(c1ccc2c(c1)OCO2)N1CCC(C(=O)N2CCCC2)CC1 (configuration not stated)	-2.61%
O=C(Nc1ccc(OCc2cccc(F)c2)c(F)c1)C1COCCO1 (configuration not stated)	-3.19%
COc1ccc(F)cc1S(=O)(=O)NCC(O)c1sccc1C (configuration not stated)	-2.63%
CCOc1ccc(S(=O)(=O)NC(=O)CCC2CCCO2)cc1 (configuration not stated)	-10.5%
Cc1ncc2c(n1)CCCC2NC(=O)c1ccccc1C(=O)O (configuration not stated)	-13.5%
CC1(C)COCCN1C(=O)Cc1cc(Cl)c2c(c1)OCCO2	0.881%
Cn1ccc(C(=O)NC2CCC23CCN(Cc2cnn(C)c2)CC3)c1 (configuration not stated)	-1.29%
CN(Cc1cnc(N)nc1)C(=O)C1CCN(C(=O)C2CCCC2)CC1	-4.62%
O=C(NCc1cc(C2CC2)n(C2CCCC2)n1)C1CC1	-9.71%
Cc1cc(N2CCC(c3nnc(CN(C)C)n3C3CC3)CC2)ccn1	18.3%
O=C(N1CCCC1)N1C[C@@H]2CCNC[C@@H]21	-12%
Cc1ccc(N2C[C@H]3OCC[C@H]3[C@H](C(=O)NCc3ccco3)C2)nn1	-7.31%
CC1CCCN(Cc2c(C3CCOCC3)[nH]c3ncccc23)C1 (configuration not stated)	26.7%
Cn1ncc2c(N3CCC(CC(=O)N4CCCC4)CC3)ncnc21	-4.03%
CC(=O)N1CCN(C(=O)c2ccc(Sc3ccccn3)cc2)CC1	-14%
O=C(O)[C@]12CCCN(Cc3ccccn3)[C@@H]1CCN(c1cnccn1)C2	-3.65%
CCCC(C(=O)NC1CCN(S(C)(=O)=O)CC1)c1ccccc1 (configuration not stated)	-4.97%

SMILES	cytotoxicity at 70.5 h
COc1ccc(OC)c(Nc2nc3c(C)nn(C)c3c(=O)n2C)c1	7.63%
COc1ncnc2c1CCN(Cc1cccs1)CC2	-2.23%
O=c1cc(CN2CCCC2)nc2n1CCCN(CC1CCOCC1)C2	-13.6%
O=C(NCCn1ccc(-c2ccccn2)n1)C1CC1	-4.52%
CCNc1ncc(C(=O)N[C@H](C(N)=O)c2ccccc2)cn1	24%
COCC(=O)N1CCN(c2ncnc3cccc(F)c23)CC1	0.217%
Cn1cc(CN2CCc3onc(COCC4CC4)c3C2)cn1	-12.8%
COCC(=O)N1CCC2(COCc3cnc(N4CCOCC4)nc32)C1 (configuration not stated)	6.48%
Fc1cccc(OC2CCN(CCn3cc4ccccc4n3)CC2)c1	-21.6%
O=S(=O)(NC1CCC12CCN(CC1CC1)CC2)c1ccccc1 (configuration not stated)	11.7%
CCN1CC(C(=O)NCCc2csc(-c3ccncc3)n2)CC1=O (configuration not stated)	-4.27%
CCn1cc(CNCC(c2ccc(C)s2)N2CCOCC2)cn1 (configuration not stated)	-7.64%
O=C1C[C@H]2[C@@H](CCN2C(=O)Cc2cccs2)N1CC1CC1	-13.5%
CN1CCN(CC2CC2)C(=O)c2cnc(N3CCCC3)nc21	15.9%
CC1N(C)C(=O)COC12CCN(C(=O)Cc1ccsc1)CC2 (configuration not stated)	-5.66%
CC(C)Nc1ncnc2c1CCN(Cc1ccoc1)CC2	-12.6%
CS(=O)(=O)Cc1ccc(Cl)cc1NCc1ccccc1F	27.6%
CC(C)C(NC(=O)Nc1ccc(F)cc1)C(=O)N(C)C (configuration not stated)	3.02%
O=C(NCc1ccc(Cl)s1)c1ccc(N2CCOC2=O)cc1	-7.09%
CSCc1cccc(S(=O)(=O)N2CCC(C)CC2)c1	8.82%
CCCn1cnnc1CNC(=O)C1COc2c(cccc2OC)C1 (configuration not stated)	-11.4%

SMILES	cytotoxicity at 70.5 h
O=S(=O)(c1cccnc1)N1C[C@H]2CCC[C@@]2(COc2ccccn2)C1	-7.2%
Cc1ccc(OCCN2CCC(c3ccnn3CCO)CC2)cc1	3.29%
CCC(=O)NC1CCCN(Cc2ccc(-n3ccnc3)cc2)C1 (configuration not stated)	-4.83%
O=S(=O)(C1CC1)N1CCc2c(CN3CCOCC3)cncc2C1	-2.38%
COc1cccc(CNC(C)C)c1OCc1ccc(C)cc1	-3.04%
Fc1ccccc1CC1CCN(Cc2cscn2)CC1	-4.53%
O=C(c1ccc(Br)o1)N1CCN(Cc2ccc(F)cc2)CC1	7.95%
O=C1N(Cc2ccc(F)c(F)c2)CCCC1(O)CNCc1ccccn1 (configuration not stated)	-4.31%
CNC(=O)CCc1cc(C)nc(C2CCCCN2)n1 (configuration not stated)	-4.98%
CCc1nc(C)c(CN2CCOC(CCCC(C)C)C2)[nH]1 (configuration not stated)	27.1%
CC1CCc2nc(NC(=O)CN(C)C(=O)c3ccco3)sc2C1 (configuration not stated)	28.3%
COCCc1noc(CN(C)C(=O)c2cccc(N3CCCC3=O)c2)n1	-17%
c1nc(-c2nc(C3CCOC3)no2)cs1 (configuration not stated)	-1.71%
CC(C)=CCCC1(C)CCC(=O)N(CCc2nc(N)cc(O)n2)C1 (configuration not stated)	-6.54%
COc1nn(C)c2c1CCCN(S(=O)(=O)c1cccc(C)c1)C2	-4.74%
CC(C)CN1CCNC(=O)C12CCN(S(=O)(=O)c1ccc(F)cc1)CC2	-3.61%
Cc1nn(C)c(N(C)C)c1CNCc1cccc(OCCN(C)C)c1	27.3%
COCCn1c(-c2cccc(OC)c2)cnc1NC(=O)NC(C)C	-2.89%
CCS(=O)(=O)N1CCOC2(CCCN(c3ccc(C)nn3)C2)C1 (configuration not stated)	-11.8%
